Literature values as cited in PMC3873039 (Anti-Cancer Agents in Medicinal Chemistry, 2013).

Tested on: lung cancer cell lines (A549 and CH27)
Settings: 24 h; cited from earlier work

C(=C\c1ccccc1)/c1ccccc1 [Trans-Stilbene, Trans-stilbene]
IC50: 25 to 98 µM
